For orientation: IC50 means the point on the concentration scale where inhibition reaches its midpoint.

The assay deals with T1, Lipoprotein-Related Phospholipase A2 (Lp-PLA2) in Human Plasma (Homo sapiens, UniProt Q13093).
T1 construct: 40 μL of equally-divided and thawed mixed human plasma is pre-added; from tissue; host or cells: mixed (pooled) human plasma
T1 sequence (Q13093 22-441): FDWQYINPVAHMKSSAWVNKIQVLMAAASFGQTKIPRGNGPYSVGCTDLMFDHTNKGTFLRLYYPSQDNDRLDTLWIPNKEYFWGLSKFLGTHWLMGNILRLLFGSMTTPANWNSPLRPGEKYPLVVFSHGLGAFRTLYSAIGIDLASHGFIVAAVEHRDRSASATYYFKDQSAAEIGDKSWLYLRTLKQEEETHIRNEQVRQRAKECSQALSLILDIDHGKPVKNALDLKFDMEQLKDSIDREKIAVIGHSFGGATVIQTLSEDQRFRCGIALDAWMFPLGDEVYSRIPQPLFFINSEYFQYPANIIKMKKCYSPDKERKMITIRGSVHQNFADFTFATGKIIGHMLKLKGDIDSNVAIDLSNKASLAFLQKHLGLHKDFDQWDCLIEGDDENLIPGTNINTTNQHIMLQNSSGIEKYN
Briefly: Determination of Lp-PLA2 in human plasma (Thio-PAF assay). The assay is classed as biochemical. The following applies: mixed human plasma, 2-thio-PAF substrate, 30 minutes pre-incubation at room temperature. An excerpt:
Determination of Lipoprotein-Related Phospholipase A2 (Lp-PLA2) in Human Plasma.
Human plasma determination utilizes a thioester analogue of phosphatidylcholine (PAF), where hydrolysis leads to the formation of phospholipids containing free thiol groups. The amount of the thiol groups is continuously determined by reacting with CPM (7-diethylamino-3-(4′-maleimidophenyl)-4-methylcoumarin), which is maleimide with increased fluorescence after Michael addition of the thiol groups. This determination can detect the activity of Lp-PLA2 in human plasma, for example, determined by the specific inhibition of the Lp-PLA2 inhibitors.
Thio-PAF determination, as quenched 75 μL determination, is carried out. A compound source plate is prepared by preparing a 1:3 (volume) series of diluents of each compound in pure DMSO on a 96-well microplate. A Rainin multi-channel pipette is used to transfer 3 μL of a compound on the compound source plate into a 96-well microplate where 57 μL of a determination buffer is pre-added, and the compound on the source plate is diluted by 20 folds. The above determination buffer contains 50 mM HEPES (pH 7.4), 150 mM NaCl, and 1 mM CHAPS. A Rainin multi-channel pipette is used to transfer 1 μL of the compound subjected to 20-fold dilution into a 96-well Greiner 655076 (black) microplate where 40 μL of equally-divided and thawed mixed human plasma is pre-added. The plate is oscillated for 20 seconds in an Elisa plate oscillator to be mixed evenly. After 30 minutes of pre-incubation at the room temperature, a Rainin multi-channel pipette is used to add 10 μL of a substrate solution to a 96-well Greiner 655076 (black) microplate, and the substrate solution contains 2.5 mM 2-thio-PAF [from ethanol mother liquor], 32 μM CPM [from DMSO mother liquor] and 3.2 mM NEM (N-ethylmaleimide) [newly prepared in DMSO for each experiment] in a determination buffer composed of 50 mM HEPES (pH 7.4), 150 mM NaCl, and 1 mM CHAPS. After 2 minutes, 25 μL of a 5% trifluoroacetic acid (TFA) aqueous solution is used for quenching the reaction. The plate is centrifuged at 2000 rpm for 1 minute. A Biotek Synergy H1 (H1MF) Elisa reader is used to read the plate at ex:380/em:485. GraphPad Prism 6.0 and Excel are used for IC50 data, curve, and QC analysis.
For `O=c1nc(OCc2ccc(Oc3ccnc(C(F)(F)F)c3)c(F)c2)cc2n1CC[C@]13CO[C@H](CN21)C3` [Example 1, (7aS,10S)-2-((3-fluoro-4-((2-(trifluoromethyl)pyrid-4-yl)oxy)benzyl)oxy)-6,7,10,11-tetra hydro-4H,8H-7a,10-methanopyrimido[6′,1′:2,3]pyrimido[6,1-c][1,4]oxazin-4-one], the IC50 stood at 5 nM.

As for `O=c1nc(OCc2cc(F)c(Oc3ccnc(C(F)(F)F)c3)c(F)c2)cc2n1CCC1CCCN21` (centres unmarked) [Example 29, 2-((3,5-difluoro-4-((2-(trifluoromethyl)pyrid-4-yl)oxy)benzyl)oxy)-6,7,7a,8,9,10-hexahy-dro-4H-pyrimidinyl [1,6-a]pyrrolo [1,2-c]pyrimidine-4-one], the IC50 amounted to 54.1 nM.

Turning to `O=c1nc(OCc2ccc(Oc3ccnc(C(F)F)c3)c(F)c2)cc2n1CC[C@]13CO[C@H](CN21)C3` [Example 8], the IC50 is 8.1 nM.

As to `O=c1nc(OCc2ccc(Oc3ccnc(C(F)(F)F)c3)c(F)c2)cc2n1CCC1CCCCN21` (centres unmarked) [Example 42, 2-((3-fluoro-4-((2-(trifluoromethyl)pyrid-4-yl)oxy)benzyl)oxy)-7,7a,8,9,10,11-hexahydro-4H,6H-pyridine[1,2-c]pyrimidine[1,6-a]pyrimidine-4-one], the 50% inhibitory concentration (IC50) amounted to 24.4 nM.

Consider `O=c1nc(OCc2cc(F)c(Oc3ccc(Cl)c(C(F)(F)F)c3)c(F)c2)cc2n1CCC1COCCN21` (centres unmarked) [Example 52, 2-((4-(4-chloro-3-(trifluoromethyl)phenoxy)-3,5-di-fluorobenzyl)oxy)-6,7,7a,8,10,11-hexahydro-4H-pyrimidinyl [6′,1′:2,3] pyrimido[6,1-c][1,4] oxazin-4-one], for which the IC50 was determined as 10.6 nM.

With `N#Cc1cc(COc2cc3n(c(=O)n2)CCC2COCCN32)ccc1Oc1cccc(C(F)(F)F)c1` (centres unmarked) [Example 53], the IC50 stood at 7.3 nM.

With `CC12CCCN1c1cc(OCc3cc(F)c(Oc4ccnc(Cl)c4)c(F)c3)nc(=O)n1CC2` (centres unmarked) [Example 36], the IC50 was 17.4 nM.

Consider `O=c1nc(OCc2ccc(Oc3ccnc(C(F)F)c3)c(F)c2)cc2n1CCC13CC(CN21)C3` [Example 19], for which the IC50 came to 37 nM.

For `N#Cc1cc(COc2cc3n(c(=O)n2)CC[C@@]24CO[C@@H](CN32)C4)ccc1Oc1cccc(C(F)(F)F)c1` [Example 25], the IC50 was determined as 6.5 nM.

With `CC12CCCN1c1cc(OCc3ccc(F)c(C#N)c3)nc(=O)n1CC2` (centres unmarked) [Example 37], the IC50 is 34 nM.

`O=c1nc(OCc2cc(F)c(Oc3ccnc(C(F)(F)F)c3)c(F)c2)cc2n1CC[C@]13CO[C@H](CN21)C3` [Example 3]: the IC50 is 7.7 nM.

In the case of `O=c1nc(OCc2cc(F)c(Oc3ccnc(OC(F)(F)F)c3)c(F)c2)cc2n1CC[C@@]13CO[C@@H](CN21)C3` [Example 26], the IC50 is 6.6 nM.

Regarding `CC12CCCCN1c1cc(OCc3ccc(Oc4ccnc(C(F)(F)F)c4)c(F)c3)nc(=O)n1CC2` (centres unmarked) [Example 49, 2-((3-fluoro-4-((2-(trifluoromethyl)pyrid-4-yl)oxy)benzyl)oxy)-7a-methyl-7,7a,8,9,10,11-hexahydro-4H,6H-pyridino[1,2-c] pyrimidine[1,6-a] pyrimidine-4-one], the IC50 was 1.6 nM.

Take `O=c1nc(OCc2cc(F)c(Oc3ccnc(Cl)c3)c(F)c2)cc2n1CCC13CC(CN21)C3` [Example 17]: the IC50 amounted to 21.5 nM.

As for `O=c1nc(OCc2cc(F)c(Oc3cnc(C(F)(F)F)nc3)c(F)c2)cc2n1CCC1CCCN21` (centres unmarked) [Example 31], the 50% inhibitory concentration (IC50) was 97.1 nM.

In the case of `O=c1nc(OCc2cc(F)c(Oc3ccnc(C(F)(F)F)c3)c(F)c2)cc2n1CC[C@@]13CO[C@@H](CN21)C3` [Example 23], the IC50 was found to be 4.9 nM.

With `O=c1nc(OCc2cc(F)c(Oc3ccnc(C(F)(F)F)c3)c(F)c2)cc2n1CCC1COCCN21` (centres unmarked) [Example 51, 2-((3,5-difluoro-4-((2-(trifluoromethyl)pyrid-4-yl)oxy)benzyl)oxy)-6,7,7a,8,10,11-hexahydro-4H-pyrimidinyl [6′,1′:2,3]pyrimidine [6,1-c][1,4] oxazin-4-one], the IC50 turned out to be 6.6 nM.

As for `O=c1nc(OCc2ccc(Oc3ccnc(C(F)(F)F)c3)c(F)c2)cc2n1CCC13CC(CN21)C3` [Example 13, 2-((3-fluoro-4-((2-(trifluoromethyl)pyrid-4-yl)oxy)benzyl)oxy)-6,7,9,10-tetrahydro-4H,8H-7a,9-methanopyri-mido[1,6-a]pyrrolo [1,2-c]pyrimidine-4-one], the concentration for half-maximal inhibition (IC50) turned out to be 8.3 nM.

Take `O=c1nc(OCc2cc(F)c(Oc3cnc(C(F)(F)F)nc3)c(F)c2)cc2n1CCC1COCCN21` (centres unmarked) [Example 55]: the 50% inhibitory concentration (IC50) was found to be 13.7 nM.

On to `O=c1nc(OCc2ccc(Oc3ccnc(C(F)(F)F)c3)c(F)c2)c(F)c2n1CC[C@]13CO[C@H](CN21)C3` [Example 57, (7aS,10S)-1-fluoro-2-((3-fluoro-4-((2-(trifluoromethyl)pyrid-4-yl)oxy)benzyl)oxy)-6,7,10, 11-tetrahydro-4H, 8H-7a,10-methyl-pyrimidinyl[6′,1′: 2,3]pyrimidinyl [6,1-c][1,4]oxazin-4-one], for which the IC50 amounted to 3.3 nM.

As to `N#Cc1cc(COc2cc3n(c(=O)n2)CCC24CC(CN32)C4)ccc1F` [Example 21], the IC50 came to 24.2 nM.

For the compound `N#Cc1c(OCc2ccc(Oc3ccnc(C(F)(F)F)c3)c(F)c2)nc(=O)n2c1N1CCCC1CC2` (centres unmarked) [Example 64, 2-((3-fluoro-4-((2-(trifluoromethyl)pyrid-4-yl)oxy)benzyl)oxy)-4-oxo-6,7,7a,8,9,10-hexahydro-4H-pyrimidinyl [1,6-a]pyrrolo [1,2-c]pyrimidine-1-nitrile], the IC50 was 5.8 nM.

Consider `Cc1c(OCc2ccc(Oc3ccnc(C(F)(F)F)c3)c(F)c2)nc(=O)n2c1N1C[C@@H]3C[C@@]1(CC2)CO3` [Example 59, (7aS,10S)-2-((3-fluoro-4-((2-(trifluoromethyl)pyrid-4-yl)oxy)benzyl)oxy)-1-methyl-6,7,10, 11-tetrahydro-4H, 8H-7a,10-methyl-pyrimidinyl[6′,1′: 2,3]pyrimidinyl [6,1-c][1,4]oxazin-4-one], for which the IC50 was determined as 5.1 nM.

On to `Cc1cc(Oc2c(F)cc(COc3cc4n(c(=O)n3)CCC35CC(CN43)C5)cc2F)ccn1` [Example 15, 2-((3,5-difluoro-4-((2-methylpyrid-4-yl)oxy)benzyl)oxy)-6,7,9,10-tetra-hydro-4H,8H-7a,9-methanopyrimido [1,6-a]pyrrolo[1,2-c]pyrimidine-4-one], for which the IC50 is 27.6 nM.

Regarding `N#Cc1cc(COc2cc3n(c(=O)n2)CCC2CCCN32)ccc1Oc1cccc(C(F)(F)F)c1` (centres unmarked) [Example 32], the IC50 was 45.7 nM.

For the compound `CCc1c(OCc2ccc(Oc3ccnc(C(F)(F)F)c3)c(F)c2)nc(=O)n2c1N1C[C@@H]3C[C@@]1(CC2)CO3` [Example 60, (7aS,10S)-1-ethyl-2-((3-fluoro-4-((2-(trifluoromethyl)pyrid-4-yl)oxy)benzyl)oxy)-6,7,10, 11-tetrahydro-4H, 8H-7a,10-methyl-pyrimidinyl [6′,1′:2,3] pyrimidinyl[6,1-c] [1,4]oxazin-4-one], the IC50 is 12.2 nM.

Regarding `O=c1nc(OCc2cc(F)c(Oc3ccnc(Cl)c3)c(F)c2)cc2n1CC[C@]13CO[C@H](CN21)C3` [Example 6], the 50% inhibitory concentration (IC50) came to 5 nM.

With `O=c1nc(OCc2cc(F)c(Oc3ccnc(Cl)c3)c(F)c2)c(F)c2n1CC[C@]13CO[C@H](CN21)C3` [Example 61, (7aS, 10S)-2-((4-((2-chloropyrid-4-yl)oxy)-3,5-difluorobenzyl)oxy)-1-fluoro-6,7,10,11-tetrahydro-4H,8H-7a, 10-methylamino-pyrimidine[6′,1′:2,3] pyrimidine[6,1-c] [1,4]oxazin-4-one], the IC50 was determined as 7 nM.

Take `CC12CCCN1c1cc(OCc3ccc(Oc4ccnc(C(F)(F)F)c4)c(F)c3)nc(=O)n1CC2` (centres unmarked) [Example 34, 2-((3-fluoro-4-((2-(trifluoromethyl)pyrid-4-yl)oxy)benzyl)oxy)-7a-methyl-6,7,7a,8,9,10-hexahydro-4H-pyri-midinyl[1,6-a] pyrrolo[1,2-c] pyrimidine-4-one]: the IC50 came out at 9.9 nM.

The record behind these values is patent US20240246995A1, “PYRIMIDINONE DERIVATIVE AND PREPARATION METHOD THEREFOR, PHARMACEUTICAL COMPOSITION, AND USE” (SHANGHAI SIMR BIOTECHNOLOGY CO., LTD., priority 2021, published 2024).
